The values below come from patent US9855283B2, “Composition comprising GPCR19 agonist as an active ingredient for preventing or treating allergic dermatitis” (SHAPERON Inc., priority 2013, dated 2018).

For experiment [1], the system named is atopic dermatitis lesions on shaved-back of Balb/C mice. As to the kind of experiment: Clinical score of DNCB-induced atopic dermatitis lesions (five items, worst score 15). The experiment is classed as in vivo. The conditions noted are these: day 15. Here is the method:
(§1) In order to test efficacy of the sodium taurodeoxycholate (HY2191) composition on atopic dermatitis, dermatitis lesion was induced at the shaved-back of 6 weeks old male Balb/C mice. DNCB (2,4-dinitro-1-chlorobenzene, Sigma) was used as a hapten.
Five mice for each group were tested. The amount of IgE in blood of mice was measured to evaluate an inhibitory effect of a medication on IgE production. To make skin lesion of atopic dermatitis, 100 μL of a DNCB solution (2.5% in acetone) was applied on the shaved-back of the mouse at day 1. One hundred μL of DNCB (1% in acetone) was applied at day 4 and 100 μL of 0.2% DNCB in acetone at day 10. […]
In order to evaluate the efficacy of sodium taurodeoxycholate on atopic dermatitis, atopic dermatitis was induced on shaved-back of Balb/C mice with DNCB according to experimental example 1 and clinical scores of atopic dermatitis lesions incurred on the back of animal model was evaluated on day 15. To evaluate clinical scores at day 15, (1) the frequency of scratching for 2 minutes, (2) the severity of erythema/hemorrhage, (3) edema, (4) excoriation/erosion, and (5) scaling/dryness were graded and were scored from 0 (none) to 3 (severe), making the worst score 15 for the most severe subject. The every subject in every group was evaluated by three people in a double-blind method. The mean clinical score of individual mouse was calculated.

For the next experiment, the system named is mast cells. The experiment is described as follows: Mast cells infiltrated into the dermis (toluidine blue). The experiment is classed as in vivo, Balb/C mice. Particulars: compared with vehicle-treated group (p<0.05). Here is the method: as §1
(§2) Five mice for each group were tested. The amount of IgE in blood of mice was measured to evaluate an inhibitory effect of a medication on IgE production. To make skin lesion of atopic dermatitis, 100 μL of a DNCB solution (2.5% in acetone) was applied on the shaved-back of the mouse at day 1. One hundred μL of DNCB (1% in acetone) was applied at day 4 and 100 μL of 0.2% DNCB in acetone at day 10.
(§3) From the day 7 to the day 14, 100 μL of the composition of 2.5% or 5% sodium taurodeoxycholate (HY2191) of example 1 was applied on the back of mice twice a day. Maxidex ointment (Dexamethasone, Alcon Korea) and Protopic ointment (Tacrolimus, Astellas Pharma Korea) were used for positive control groups and only a vehicle was used for a negative control group.
(§4) The number of mast cells, eosinophils, and neutrophils infiltrated into the dermis were counted after staining skins with toluidine blue, congo red, or specific esterase (Naphthol AS-D chloroacetate), respectively. […] On the other hand, the number of neutrophils critical for acute inflammation was increased in the group of atopic mice treated with Protopic.

The next experiment has as its system IL-4. As to the kind of experiment: Serum TH2 cytokine IL-4 by ELISA in DNCB-induced atopic dermatitis mice. The class given is in vivo, Balb/C mice. Particulars: 5% composition; better than mice treated with Protopic or Maxidex (p<0.05).
Experiment [2] deals with dorsal skin of atopic mice. As to the kind of experiment: Histopathology (H&E) of dorsal skin: thickness of epidermis and dermis. The conditions noted are these: for thickness of the epidermis: DNCB only 320.2±21.6 μm, sham 26.1±1.0 μm; for thickness of dermis: DNCB only 930.2±34.2 μm, sham 384.7±11.4 μm. The experiment is classed as in vivo, Balb/C mice. Here is the method: In order to test efficacy of the sodium taurodeoxycholate (HY2191) composition on atopic dermatitis, dermatitis lesion was induced at the shaved-back of 6 weeks old male Balb/C mice. DNCB (2,4-dinitro-1-chlorobenzene, Sigma) was used as a hapten. Five mice for each group were tested. The amount of IgE in blood of mice was measured to evaluate an inhibitory effect of a medication on IgE production. To make skin lesion of atopic dermatitis, 100 μL of a DNCB solution (2.5% in acetone) was applied on the shaved-back of the mouse at day 1. One hundred μL of DNCB (1% in acetone) was applied at day 4 and 100 μL of 0.2% DNCB in acetone at day 10. From the day 7 to the day 14, 100 μL of the composition of 2.5% or 5% sodium taurodeoxycholate (HY2191) of example 1 was applied on the back of mice twice a day. Maxidex ointment (Dexamethasone, Alcon Korea) and Protopic ointment (Tacrolimus, Astellas Pharma Korea) were used for positive control groups and only a vehicle was used for a negative control group. The dorsal skin flaps of the mice were fixed in a 10% formalin solution for 24 hours and then washed with distilled water. The paraffin blocks of the fixed skins were prepared and sectioned (thickness of 7 μm). They were stained with hematoxylin and eosin (H&E) (FIG. 5A). The thickness of epidermis and the dermis of mice treated with DNCB only were 320.2±21.6 μm and 930.2±34.2 μm, respectively. […] The thickness of dermis from the group of atopic mice treated with 2.5% sodium taurodeoxycholate (HY2191), 5% sodium taurodeoxycholate (HY2191), or Protopic were 616.0±21.1 μm, 521.7±18.3 μm, and 572.6±20.2 μm, respectively.

The subject of another experiment is serum IgE. The experiment is described as follows: Serum IgE level by ELISA in DNCB-induced atopic dermatitis mice. The experiment is classed as in vivo, Balb/C mice. Particulars: FIG. 3. As to the method: as §1, §2, §3
After the clinical evaluation described at Experimental Example 2, a mixture containing 0.4% of Zoletil (Virbac, Milano Italy) and 0.04% of Rompun (Bayer Korea) in normal saline was injected i.p. to anesthetize each mouse. Blood samples were collected from the heart of the mice. The serum was prepared to measure the concentration of IgE using enzyme immunoassay (Mouse IgE ELISA, BD). […]

A further experiment concerns IL-2. As to the kind of experiment: Serum TH1 cytokine IL-2 by ELISA in DNCB-induced atopic dermatitis mice. The class given is in vivo, Balb/C mice. The conditions noted are these: 5% composition; far better than mice treated with Protopic or Maxidex (p<0.05). (In an ELISA, binding on a coated surface is turned into a signal by an enzyme label.)
Another experiment relates to IFN-γ. As to the kind of experiment: Serum TH1 cytokine IFN-γ by ELISA in DNCB-induced atopic dermatitis mice. The class given is in vivo, Balb/C mice. The conditions noted are these: 5% composition; far better than mice treated with Protopic or Maxidex (p<0.05).
The test system of the next experiment is neutrophils. As to the kind of experiment: Neutrophils infiltrated into the dermis (specific esterase, Naphthol AS-D chloroacetate). The class given is in vivo, Balb/C mice. Particulars: compared with vehicle-treated group. As to the method: as §1, §2, §3, §4
The test system of the next experiment is eosinophils. As to the kind of experiment: Eosinophils infiltrated into the dermis (congo red). The experiment is classed as in vivo, Balb/C mice. Particulars: compared with vehicle-treated group (p<0.05). As to the method: as §1, §2, §3, §4

Consider `C[C@H](CCC(=O)NCCS(=O)(=O)O)[C@H]1CC[C@H]2[C@@H]3CC[C@@H]4C[C@H](O)CC[C@]4(C)[C@H]3C[C@H](O)[C@]12C` [sodium taurodeoxycholate (HY2191), sodium taurodeoxycholate], for which the clinical scores entry in experiment [1] (5% composition, compared to positive control group that received Maxidex ointment or Protopic ointment) is “better clinical scores”. The clinical score entry in experiment [1] (compared to negative control group treated with vehicle only, topical twice a day, day 7 to 14) is given as “better clinical score”. In addition, in the experiment on mast cells, the “number of mast cells in the skin of atopic mice” value is “significantly decreased”. Further, the “level of IL-4 (TH2 cytokine) in serum” value in the experiment on IL-4 was “decreased significantly”. In [2] (2.5% composition), the “thickness of the epidermis” value is reported as 105.3±7.0 μm and the thickness of dermis worked out at 616.0±21.1 μm. For the same molecule, in [2] (5% composition), the “thickness of the epidermis” value was 75.0±8.4 μm and the thickness of dermis came to 521.7±18.3 μm. Further, the “inhibiting serum IgE production” value with serum IgE (2.5% or 5% composition) is “effective in inhibiting serum IgE production”. In addition, in the experiment on serum IgE (compared with positive control groups (Maxidex ointment or Protopic ointment)), the “serum IgE levels” value was “significantly lower”. In addition, the “level of IL-2 (TH1 cytokine) in serum” value with IL-2 is on record as “increased significantly”. In the experiment with IFN-γ, the “level of IFN-γ (TH1 cytokine) in serum” value was “increased significantly”. Moreover, in the experiment on neutrophils, the “number of neutrophils in the skin of atopic mice” value is “significantly decreased”. Further, the “number of eosinophils in the skin of atopic mice” value with eosinophils is “significantly decreased”.
